Data set [1] has as its system Hepatitis C virus. The data set is described as follows: Antiviral activity against HCV genotype 1b infected in human Huh-5.2 cells assessed as decrease in HCV replicon RNA replication after 4 days by luciferase assay. The class given is functional, cell-based, Hepacivirus hominis. The settings on record: Huh-5-2, 96 h. (A replicon is a self-replicating genome or part of one, used to study replication in cells.)

The subject of data set [2] is Hepatitis C virus. The experiment in a line: Antiviral activity against HCV genotype 1a infected in W11.8 cells assessed as decrease in NS5A expression in replicon cell after 4 days by luminescence based ELISA. The class given is functional, Hepacivirus hominis. The settings on record: subtype 1a, W11.8, 96 h.
Data set [3] in a line: Cytotoxicity against human HuhET cells by [3H]thymidine incorporation assay. The class given is cell-based.
Data set [4] in a line: Metabolic stability in rat liver microsomes assessed as remaining parent compound level at 5 uM after 30 mins in presence of NADPH and UDPGA. The class given is ADME. The settings on record: read-out: Stability. (Liver microsomes are vesicles of endoplasmic reticulum, rich in cytochrome P450 enzymes.)
A further data set addresses Cytochrome P450 2D6 (Homo sapiens, UniProt P10635). The experiment in a line: Inhibition of CYP2D6 (unknown origin). The format is ADME.
The target of the next data set is Cytochrome P450 2C9 (Homo sapiens, UniProt P11712). The data set is described as follows: Inhibition of CYP2C9 (unknown origin). The format is ADME.
Data set [5] is described as follows: Half life in Sprague-Dawley rat at 3 mg/kg, po. The class given is ADME, organism-based. Also on record: dose 3 mg/kg, route oral. The settings on record: in vivo.
The next data set addresses Cytochrome P450 3A4 (Homo sapiens, UniProt P08684). The experiment in a line: Inhibition of CYP3A4 (unknown origin). The format is ADME.
The nature of data set [6]: AUC (0 to 8 hrs) in Sprague-Dawley rat at 3 mg/kg, po. The class given is ADME, organism-based. Also on record: time < 8 hr, dose 3 mg/kg, route oral. The settings on record: plasma.
Data set [7] is described as follows: Volume of distribution at steady state in Sprague-Dawley rat at 3 mg/kg, iv. Also on record: dose 3 mg/kg, route intravenous. The settings on record: in vivo, read-out: Vdss. The format is ADME, organism-based.
Data set [8] can be described thus: Clearance in Sprague-Dawley rat at 3 mg/kg, iv. The settings on record: in vivo. Also on record: dose 3 mg/kg, route intravenous. The format is ADME, organism-based.
Data set [9] is described as follows: (§1) Cmax in Sprague-Dawley rat at 3 mg/kg, po. The class given is ADME, organism-based. Also on record: dose 3 mg/kg, route oral. The settings on record: Sprague-Dawley, in vivo.
Data set [10] can be described thus: Metabolic stability in human liver microsomes assessed as remaining parent compound level at 5 uM after 30 mins in presence of NADPH and UDPGA. The format is ADME. The settings on record: read-out: Stability.
The target of data set [11] is Voltage-gated inwardly rectifying potassium channel KCNH2 (Homo sapiens, UniProt Q12809). The experiment in a line: Inhibition of human ERG by Q-patch assay.
A short description of data set [12]: Half life in Sprague-Dawley rat at 3 mg/kg, iv. The class given is ADME, organism-based. Also on record: dose 3 mg/kg, route intravenous. The settings on record: in vivo.
The nature of data set [13]: Oral bioavailability in Sprague-Dawley rat at 3 mg/kg. The class given is ADME, organism-based. The settings on record: in vivo.
The subject of the next data set is Rattus norvegicus. The data set is described as §1. The class given is ADME, organism-based. Also on record: dose 3 mg/kg, route oral. The settings on record: in vivo.

Usually EC50 stands for the concentration needed to bring the measured effect to its halfway point. Broadly, the CC50 is the concentration that lowers cell viability or growth by half. Read a low CC50 as greater toxicity to the cells. As a reminder, the IC50 is the concentration at which inhibition is half-maximal. A low value points to greater potency. For orientation: half-life means the time in which the quantity being followed falls by half. High values mean slow decline, low ones rapid decline. The term AUC(0-t) denotes exposure summed from dosing to a finite time, without extrapolation to infinity. A low value points to less exposure. For orientation: clearance means the volume of plasma or blood freed of the substance per unit of time. Lower therefore signals a low capacity for elimination. Broadly, the Cmax is the peak of the concentration-time curve. Broadly, the bioavailability is the share of a dose that reaches the circulation, judged against a reference dose that is usually intravenous. High values mean much systemic uptake, low ones little systemic uptake.

Cytochrome P450 2D6, sequence (P10635 whole entry): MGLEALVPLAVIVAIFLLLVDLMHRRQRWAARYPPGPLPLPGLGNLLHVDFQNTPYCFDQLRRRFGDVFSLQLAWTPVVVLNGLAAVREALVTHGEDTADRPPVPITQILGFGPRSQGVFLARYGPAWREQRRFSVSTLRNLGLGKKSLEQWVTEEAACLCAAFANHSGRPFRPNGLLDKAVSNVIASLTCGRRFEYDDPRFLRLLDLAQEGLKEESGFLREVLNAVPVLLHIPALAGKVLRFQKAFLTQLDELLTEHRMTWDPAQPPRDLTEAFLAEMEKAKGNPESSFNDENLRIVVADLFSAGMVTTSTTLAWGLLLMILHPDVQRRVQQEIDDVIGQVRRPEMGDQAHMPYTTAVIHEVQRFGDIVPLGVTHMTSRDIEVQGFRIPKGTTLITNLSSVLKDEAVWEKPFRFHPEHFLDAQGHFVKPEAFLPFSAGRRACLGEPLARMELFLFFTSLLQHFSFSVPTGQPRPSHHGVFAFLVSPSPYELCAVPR
Cytochrome P450 2C9, sequence (P11712 whole entry): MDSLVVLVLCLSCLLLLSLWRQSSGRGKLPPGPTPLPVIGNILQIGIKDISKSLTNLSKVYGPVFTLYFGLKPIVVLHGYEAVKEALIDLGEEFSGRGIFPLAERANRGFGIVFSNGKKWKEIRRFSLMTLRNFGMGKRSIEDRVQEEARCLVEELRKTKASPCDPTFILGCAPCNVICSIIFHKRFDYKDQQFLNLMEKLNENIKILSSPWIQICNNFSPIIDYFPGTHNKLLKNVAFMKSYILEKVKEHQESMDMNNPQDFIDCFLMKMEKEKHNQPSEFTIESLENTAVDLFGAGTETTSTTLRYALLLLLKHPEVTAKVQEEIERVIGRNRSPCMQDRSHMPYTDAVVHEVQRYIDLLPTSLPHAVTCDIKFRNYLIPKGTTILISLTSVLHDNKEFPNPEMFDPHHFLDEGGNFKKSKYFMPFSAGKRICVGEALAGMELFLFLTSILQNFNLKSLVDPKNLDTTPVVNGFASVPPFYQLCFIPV
Voltage-gated inwardly rectifying potassium channel KCNH2, sequence (Q12809 whole entry): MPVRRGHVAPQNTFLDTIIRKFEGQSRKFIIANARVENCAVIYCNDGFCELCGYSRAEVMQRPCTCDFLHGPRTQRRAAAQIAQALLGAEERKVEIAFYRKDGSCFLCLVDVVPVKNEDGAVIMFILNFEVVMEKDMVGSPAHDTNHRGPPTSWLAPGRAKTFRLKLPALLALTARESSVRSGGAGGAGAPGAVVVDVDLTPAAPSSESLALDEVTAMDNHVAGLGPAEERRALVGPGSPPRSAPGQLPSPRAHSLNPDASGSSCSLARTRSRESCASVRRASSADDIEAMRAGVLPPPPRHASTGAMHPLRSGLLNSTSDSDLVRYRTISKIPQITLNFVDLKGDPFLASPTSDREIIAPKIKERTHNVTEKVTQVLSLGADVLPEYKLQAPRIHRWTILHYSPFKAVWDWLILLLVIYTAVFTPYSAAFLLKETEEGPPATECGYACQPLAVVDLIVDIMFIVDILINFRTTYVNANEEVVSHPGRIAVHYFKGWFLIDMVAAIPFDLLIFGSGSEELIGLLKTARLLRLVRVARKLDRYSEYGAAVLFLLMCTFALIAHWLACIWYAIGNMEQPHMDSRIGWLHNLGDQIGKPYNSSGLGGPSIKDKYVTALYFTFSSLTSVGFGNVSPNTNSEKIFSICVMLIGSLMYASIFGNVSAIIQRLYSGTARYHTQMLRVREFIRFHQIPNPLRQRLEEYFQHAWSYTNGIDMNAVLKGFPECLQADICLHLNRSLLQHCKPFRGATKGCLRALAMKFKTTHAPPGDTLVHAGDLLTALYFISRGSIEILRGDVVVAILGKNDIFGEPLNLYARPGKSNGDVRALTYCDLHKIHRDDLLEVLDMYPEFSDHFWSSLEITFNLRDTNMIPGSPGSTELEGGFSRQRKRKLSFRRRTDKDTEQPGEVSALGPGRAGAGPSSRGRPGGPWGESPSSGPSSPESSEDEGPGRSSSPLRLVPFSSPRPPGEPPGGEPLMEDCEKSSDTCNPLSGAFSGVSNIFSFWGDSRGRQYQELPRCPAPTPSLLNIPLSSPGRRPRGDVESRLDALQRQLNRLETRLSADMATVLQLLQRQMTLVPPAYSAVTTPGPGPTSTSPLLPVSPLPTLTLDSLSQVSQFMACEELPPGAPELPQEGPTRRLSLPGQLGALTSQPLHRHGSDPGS
Cytochrome P450 3A4, sequence (P08684 whole entry): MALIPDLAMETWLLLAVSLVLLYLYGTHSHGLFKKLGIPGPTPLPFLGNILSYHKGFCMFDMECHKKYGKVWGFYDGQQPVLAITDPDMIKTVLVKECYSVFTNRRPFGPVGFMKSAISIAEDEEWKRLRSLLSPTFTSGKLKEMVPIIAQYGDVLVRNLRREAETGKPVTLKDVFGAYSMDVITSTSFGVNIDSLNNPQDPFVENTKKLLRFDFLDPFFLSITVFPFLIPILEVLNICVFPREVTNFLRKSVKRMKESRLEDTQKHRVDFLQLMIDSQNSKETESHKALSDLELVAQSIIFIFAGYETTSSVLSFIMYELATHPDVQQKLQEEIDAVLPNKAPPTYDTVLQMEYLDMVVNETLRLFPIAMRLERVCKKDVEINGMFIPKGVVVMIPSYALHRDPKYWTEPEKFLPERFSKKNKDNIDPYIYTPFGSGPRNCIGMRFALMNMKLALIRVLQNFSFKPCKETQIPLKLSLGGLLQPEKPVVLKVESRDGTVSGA

Consider `COC(=O)N[C@H](C(=O)N1C[C@@H](C)C[C@H]1c1cn2ccc(-c3ccc(-c4cc5[nH]c([C@@H]6C[C@H](C)CN6C(=O)[C@@H](NC(=O)OC)C(C)C)nc5s4)cc3)cc2n1)C(C)C`, for which the EC50 in the data set on Hepatitis C virus [1] was determined as 0.041 nM; with Hepatitis C virus [2] it was 0.3 nM. In addition, the CC50 in [3] was determined as 15300 nM.
In the case of `COC(=O)N[C@H](C(=O)N1C[C@@H](C)C[C@H]1c1ncc(-c2ccc(-c3ccc(-c4cc5[nH]c([C@@H]6C[C@H](C)CN6C(=O)[C@@H](NC(=O)OC)C(C)C)nc5s4)s3)cc2)[nH]1)C(C)C`, the EC50 with Hepatitis C virus [1] is 0.004 nM; with Hepatitis C virus [2], 0.017 nM. In addition, the remaining at 0.5 h, 5 µM in [4] and in data set [10] was 100% in each case. Moreover, the IC50 on Cytochrome P450 2D6 is over 30000 nM; at Cytochrome P450 2C9, 21000 nM; against Cytochrome P450 3A4, over 30000 nM; in data set [11], 25100 nM. Further, the half-life in [5] is 9.8 h; in data set [12] it was 6.7 h. The AUC(0-t) at 8 h in [6] worked out at 440 ng·h/mL. In [7], the Vd worked out at 3.8 L/kg. The molecule also yielded a CC50 in data set [3] of 13300 nM. This molecule also displayed a clearance in data set [8] of 6.9 mL/min/kg. For the same molecule, the Cmax in [9] amounted to 10 ng/mL. In data set [13], this molecule returned a bioavailability of 11%.
As to `COC(=O)N[C@H](C(=O)N1C[C@@H](C)C[C@H]1c1nc2cc(C#Cc3cc4[nH]c([C@@H]5C[C@H](C)CN5C(=O)[C@@H](NC(=O)OC)C(C)C)nc4s3)ccc2[nH]1)C(C)C`, the EC50 in the data set on Hepatitis C virus [1] turned out to be 0.011 nM; in the data set with Hepatitis C virus [2], 39 nM.
Consider `COC(=O)N[C@H](C(=O)N1C[C@@H](C)C[C@H]1c1cc2cc(-c3ccc(-c4cc5[nH]c([C@@H]6C[C@H](C)CN6C(=O)[C@@H](NC(=O)OC)C(C)C)nc5s4)cc3)ccc2[nH]1)C(C)C`, for which the EC50 with Hepatitis C virus [1] was 0.045 nM; with Hepatitis C virus [2], 100 nM. Also, the CC50 in data set [3] was over 20000 nM.
In the case of `COC(=O)N[C@H](C(=O)N1C[C@@H](C)C[C@H]1c1ncc(-c2ccc(-c3cc4sc(-c5cc6[nH]c([C@@H]7C[C@H](C)CN7C(=O)[C@@H](NC(=O)OC)C(C)C)nc6s5)cc4s3)cc2)[nH]1)C(C)C`, the figures for the EC50 in the data set with Hepatitis C virus [1] and in the data set with Hepatitis C virus [2] were 0.012 nM and 0.053 nM, respectively. In data set [3], this molecule displayed a CC50 of over 20000 nM.
As for `COC(=O)N[C@H](C(=O)N1CCC[C@H]1c1nc2cc(C#Cc3cc4[nH]c([C@@H]5CCCN5C(=O)[C@@H](NC(=O)OC)C(C)C)nc4s3)ccc2[nH]1)C(C)C`, the EC50 with Hepatitis C virus [1] was found to be 0.215 nM; in the data set on Hepatitis C virus [2], 828 nM.
Turning to `COC(=O)N[C@H](C(=O)N1C[C@@H](C)C[C@H]1c1ncc(-c2ccc(-c3ccc(-c4cc5[nH]c([C@@H]6C[C@H](C)CN6C(=O)[C@@H](NC(=O)OC)C(C)C)nc5s4)cc3)cc2)[nH]1)C(C)C`, the remaining at 0.5 h, 5 µM came to 100% in [4] and 90% in data set [10]. For the same molecule, the IC50 was over 30000 nM against Cytochrome P450 2D6, over 30000 nM on Cytochrome P450 2C9, over 30000 nM against Cytochrome P450 3A4 and over 40000 nM in data set [11]. In addition, the CC50 in [3] is over 20000 nM. Also, the Cmax in the data set on Rattus norvegicus came to 30 ng/mL.
Take `COC(=O)N[C@H](C(=O)N1C[C@@H](C)C[C@H]1c1ncc(-c2ccc(-c3ccc(-c4cc5[nH]c([C@@H]6C[C@H](C)CN6C(=O)[C@@H](NC(=O)OC)C(C)C)nc5s4)c(C)c3)cc2)[nH]1)C(C)C`: the figures for the EC50 with Hepatitis C virus [1] and in the data set on Hepatitis C virus [2] were 0.004 nM and 0.037 nM, respectively. The same molecule gave a CC50 in data set [3] of over 20000 nM.
In the same order, the values of `COC(=O)N[C@H](C(=O)N1C[C@@H](C)C[C@H]1c1ncc(-c2ccc(-c3ccc(-c4cc5[nH]c([C@@H]6C[C@H](C)CN6C(=O)[C@@H](NC(=O)OC)C(C)C)nc5s4)cc3C)cc2)[nH]1)C(C)C` are 0.002 nM, 0.037 nM and 19200 nM.
Consider `COC(=O)N[C@H](C(=O)N1C[C@@H](C)C[C@H]1c1nc2sc(-c3ccc(-c4ccc5oc([C@@H]6C[C@H](C)CN6C(=O)[C@@H](NC(=O)OC)C(C)C)nc5c4)cc3)cc2[nH]1)C(C)C`, for which the figures for the EC50 in the data set with Hepatitis C virus [1] and with Hepatitis C virus [2] were 0.115 nM and 18 nM, respectively. Besides, the CC50 in [3] was over 20000 nM.
Turning to `COC(=O)N[C@H](C(=O)N1C[C@@H](C)C[C@H]1c1nc2cc(-c3ccc(-c4cc5[nH]c([C@@H]6C[C@H](C)CN6C(=O)[C@@H](NC(=O)OC)C(C)C)nc5s4)cc3)ccc2[nH]1)C(C)C`, the EC50 with Hepatitis C virus [2] is 0.6 nM. This molecule also had a CC50 in data set [3] of over 20000 nM.
In the case of `COC(=O)N[C@H](C(=O)N1C[C@@H](C)C[C@H]1c1ncc(-c2ccc(-c3ccc(-c4cc5[nH]c([C@@H]6C[C@H](C)CN6C(=O)[C@@H](NC(=O)OC)C(C)C)nc5s4)c(F)c3)cc2)[nH]1)C(C)C`, the EC50 in the data set with Hepatitis C virus [1] amounted to 0.002 nM; in the data set with Hepatitis C virus [2] it was 0.023 nM. Besides, the CC50 in data set [3] is over 20000 nM.
In the same order, the values of `COC(=O)N[C@H](C(=O)N1C[C@@H](C)C[C@H]1c1nc2sc(-c3ccc(-c4ccc5c(c4)nc([C@@H]4C[C@H](C)CN4C(=O)[C@@H](NC(=O)OC)C(C)C)n5C)cc3)cc2[nH]1)C(C)C` are 0.019 nM, 13 nM and over 20000 nM.
Turning to `COC(=O)N[C@H](C(=O)N1C[C@@H](C)C[C@H]1c1ncc(-c2ccc(-c3ccc(-c4cc5[nH]c([C@@H]6C[C@H](C)CN6C(=O)[C@@H](NC(=O)OC)C(C)C)nc5s4)cc3F)cc2)[nH]1)C(C)C`, the EC50 in the data set on Hepatitis C virus [1] amounted to 0.006 nM; with Hepatitis C virus [2] it was 0.023 nM. In [3], this molecule gave a CC50 of 20000 nM.

The record behind these values is ChEMBL document CHEMBL3393045, “Discovery of thienoimidazole-based HCV NS5A inhibitors. Part 2: non-symmetric inhibitors with potent activity against genotype 1a and 1b” (Bioorg Med Chem Lett, 2015).
